Tests used:
[1] = test system: johnsongrass; experiment: preemergence herbicidal activity on johnsongrass; type: in vivo; conditions: Sorghum halepense, pre-emergence, 0.3 Kg/Ha, after 12-17 days, read-out: PREEMERGENCE HERBICIDAL ACTIVITY (% CONTROL) SORHA
Protocol: (§1) The (oxaalkyl)phenyl-substituted heterocycles of this invention were tested for pre- and postemergence herbicidal activity using a variety of crops and weeds. The test plants included soybean (Glycine max var. Winchester),field corn (Zea mays var. Pioneer 3732), wheat (Triticum aestivum var. Lew), morningglory (Ipomea lacunosa or Ipomea hederacea), […] (Abutilon theophrasti), green foxtail (Setaria viridis), Johnsongrass (Sorghum halepense), blackgrass (Aloepecurus myosuroides), common chickweed (Stellaria media), and common cocklebur (Xanthium strumarium L.).
(§2) For preemergence testing, two disposable fiber flats (8 cm×15 cm×25 cm) for each rate of application of each candidate herbicide were filled to an approximate depth of 6.5 cm with steam-sterilized sandy loam soil. The soil was leveled and impressed with a template to provide five evenly spaced furrows 13 cm long and 0.5 cm deep in each flat. Seeds of soybean, wheat, corn, green foxtail, and johnsongrass were planted in the furrows of the first flat, and seeds of velvetleaf, morningglory, common chickweed, cocklebur, and blackgrass were planted in the furrows of the second flat. The five-row template was employed to firmly press the seeds into place. A topping soil of equal portions of sand and sandy loam soil was placed uniformly on top of each flat to a depth of approximately 0.5 cm. Flats for postemergence testing were prepared in the same manner except that they were planted 9-14 days prior to the preemergence flats and were placed in a greenhouse and watered, thus allowing the seeds to germinate and the foliage to develop.
(§3) In both pre- and postemergence tests, a stock solution of the candidate herbicide was prepared by dissolving 0.27 g of the compound in 20 mL of water/acetone (50/50) containing 0.5% v/v sorbitan monolaurate. For an application rate of 3000 g/ha of herbicide a 10 mL portion of the stock solution was diluted with water/acetone (50/50) to 45 mL.
(§4) The preemergence flats were initially subjected to a light water spray. The four flats were placed two by two along a conveyor belt (i.e., the two preemergence followed by the two postemergence flats). The conveyor belt fed under a spray nozzle mounted about ten inches above the postemergent foliage. The preemergent flats were elevated on the belt so that the soil surface was at the same level below the spray nozzle as the foliage canopy of the postemergent plants. The spray of herbicidal solution was commenced and once stabilized, the flats were passed under the spray at a speed to receive a coverage equivalent of 1000 L/ha. At this coverage the application rates are those shown in the above table for the individual herbicidal solutions. The preemergence flats were watered immediately thereafter, placed in the greenhouse and watered regularly at the soil surface. The postemergence flats were immediately placed in the green-house and not watered until 24 hours after treatment with the test solution. Thereafter they were regularly watered at ground level. After 12-17 days the plants were examined and the phytotoxicity data were recorded.
(§5) Phytotoxicity data were taken as percent control. Percent control was by a method similar to the 0 to 1 00 rating system disclosed in "Research Methods in Weed Science," 2nd ed., B. Truelove, Ed.; Southern Weed Science Society; Auburn University, Auburn, Ala., 1977.

[2] = test system: green foxtail; experiment: preemergence herbicidal activity on green foxtail; type: in vivo; conditions: Setaria viridis, pre-emergence, 0.3 Kg/Ha, after 12-17 days, read-out: PREEMERGENCE HERBICIDAL ACTIVITY (% CONTROL) SETVI
Protocol: as §1, §2, §3, §4, §5

[3] = test system: corn; experiment: postemergence herbicidal activity on corn; type: in vivo, Zea mays var. Pioneer 3732; conditions: Zea mays, post-emergence, 0.3 Kg/Ha, after 12-17 days, read-out: POSTEMERGENCE HERBICIDAL ACTIVITY (% CONTROL) CRN
Protocol: as §1, §2, §3, §4, §5

[4] = test system: corn; experiment: preemergence herbicidal activity on corn; type: in vivo, Zea mays var. Pioneer 3732; conditions: Zea mays, pre-emergence, 0.3 Kg/Ha, after 12-17 days, read-out: PREEMERGENCE HERBICIDAL ACTIVITY (% CONTROL) CRN
Protocol: as §1, §2, §3, §4, §5

[5] = test system: green foxtail; experiment: postemergence herbicidal activity on green foxtail; type: in vivo; conditions: Setaria viridis, post-emergence, 0.3 Kg/Ha, after 12-17 days, read-out: POSTEMERGENCE HERBICIDAL ACTIVITY (% CONTROL) SETVI
Protocol: as §1, §2, §3, §4, §5

[6] = test system: velvetleaf; experiment: preemergence herbicidal activity on velvetleaf; type: in vivo; conditions: Abutilon theophrasti, pre-emergence, 0.3 Kg/Ha, after 12-17 days, read-out: PREEMERGENCE HERBICIDAL ACTIVITY (% CONTROL) ABUTH
Protocol: as §1, §2, §3, §4, §5

[7] = test system: cocklebur; experiment: postemergence herbicidal activity on cocklebur; type: in vivo, Xanthium strumarium L.; conditions: Xanthium strumarium, post-emergence, 0.3 Kg/Ha, after 12-17 days, read-out: POSTEMERGENCE HERBICIDAL ACTIVITY (% CONTROL) XANPE
Protocol: as §1, §2, §3, §4, §5

[8] = test system: morningglory; experiment: postemergence herbicidal activity on morningglory; type: in vivo, Ipomea lacunosa or Ipomea hederacea; conditions: Ipomoea, post-emergence, 0.3 Kg/Ha, after 12-17 days, read-out: POSTEMERGENCE HERBICIDAL ACTIVITY (% CONTROL) IPOSS
Protocol: as §1, §2, §3, §4, §5

[9] = test system: wheat; experiment: preemergence herbicidal activity on wheat; type: in vivo, Triticum aestivum var. Lew; conditions: Triticum aestivum, pre-emergence, 0.3 Kg/Ha, after 12-17 days, read-out: PREEMERGENCE HERBICIDAL ACTIVITY (% CONTROL) WHT
Protocol: as §1, §2, §3, §4, §5

[10] = test system: chickweed; experiment: postemergence herbicidal activity on chickweed; type: in vivo; conditions: Stellaria media, post-emergence, 0.3 Kg/Ha, after 12-17 days, read-out: POSTEMERGENCE HERBICIDAL ACTIVITY (% CONTROL) STEME
Protocol: as §1, §2, §3, §4, §5

[11] = test system: soybean; experiment: postemergence herbicidal activity on soybean; type: in vivo, Glycine max var. Winchester; conditions: Glycine max, post-emergence, 0.3 Kg/Ha, after 12-17 days, read-out: POSTEMERGENCE HERBICIDAL ACTIVITY (% CONTROL) SOY
Protocol: as §1, §2, §3, §4, §5

[12] = test system: cocklebur; experiment: preemergence herbicidal activity on cocklebur; type: in vivo, Xanthium strumarium L.; conditions: Xanthium strumarium, pre-emergence, 0.3 Kg/Ha, after 12-17 days, read-out: PREEMERGENCE HERBICIDAL ACTIVITY (% CONTROL) XANPE
Protocol: as §1, §2, §3, §4, §5

[13] = test system: chickweed; experiment: preemergence herbicidal activity on chickweed; type: in vivo; conditions: Stellaria media, pre-emergence, 0.3 Kg/Ha, after 12-17 days, read-out: PREEMERGENCE HERBICIDAL ACTIVITY (% CONTROL) STEME
Protocol: as §1, §2, §3, §4, §5

[14] = test system: wheat; experiment: postemergence herbicidal activity on wheat; type: in vivo, Triticum aestivum var. Lew; conditions: Triticum aestivum, post-emergence, 0.3 Kg/Ha, after 12-17 days, read-out: POSTEMERGENCE HERBICIDAL ACTIVITY (% CONTROL) WHT
Protocol: as §1, §2, §3, §4, §5

[15] = test system: blackgrass; experiment: preemergence herbicidal activity on blackgrass; type: in vivo, Aloepecurus myosuroides; conditions: Alopecurus myosuroides, pre-emergence, 0.3 Kg/Ha, after 12-17 days, read-out: PREEMERGENCE HERBICIDAL ACTIVITY (% CONTROL) ALOMY
Protocol: as §1, §2, §3, §4, §5

[16] = test system: velvetleaf; experiment: postemergence herbicidal activity on velvetleaf; type: in vivo; conditions: Abutilon theophrasti, post-emergence, 0.3 Kg/Ha, after 12-17 days, read-out: POSTEMERGENCE HERBICIDAL ACTIVITY (% CONTROL) ABUTH
Protocol: as §1, §2, §3, §4, §5

[17] = test system: blackgrass; experiment: postemergence herbicidal activity on blackgrass; type: in vivo, Aloepecurus myosuroides; conditions: Alopecurus myosuroides, post-emergence, 0.3 Kg/Ha, after 12-17 days, read-out: POSTEMERGENCE HERBICIDAL ACTIVITY (% CONTROL) ALOMY
Protocol: as §1, §2, §3, §4, §5

[18] = test system: soybean; experiment: preemergence herbicidal activity on soybean; type: in vivo, Glycine max var. Winchester; conditions: Glycine max, pre-emergence, 0.3 Kg/Ha, after 12-17 days, read-out: PREEMERGENCE HERBICIDAL ACTIVITY (% CONTROL) SOY
Protocol: as §1, §2, §3, §4, §5

[19] = test system: johnsongrass; experiment: postemergence herbicidal activity on johnsongrass; type: in vivo; conditions: Sorghum halepense, post-emergence, 0.3 Kg/Ha, after 12-17 days, read-out: POSTEMERGENCE HERBICIDAL ACTIVITY (% CONTROL) SORHA
Protocol: as §1, §2, §3, §4, §5

[20] = test system: morningglory; experiment: preemergence herbicidal activity on morningglory; type: in vivo, Ipomea lacunosa or Ipomea hederacea; conditions: Ipomoea, pre-emergence, 0.3 Kg/Ha, after 12-17 days, read-out: PREEMERGENCE HERBICIDAL ACTIVITY (% CONTROL) IPOSS
Protocol: as §1, §2, §3, §4, §5

Row | SMILES | activity at 300 g/ha [1] [%] | activity at 300 g/ha [2] [%] | activity at 300 g/ha [3] [%] | activity at 300 g/ha [4] [%] | activity at 300 g/ha [5] [%] | activity at 300 g/ha [6] [%] | activity at 300 g/ha [7] [%] | activity at 300 g/ha [8] [%] | activity at 300 g/ha [9] [%] | activity at 300 g/ha [10] [%] | activity at 300 g/ha [11] [%] | activity at 300 g/ha [12] [%] | activity at 300 g/ha [13] [%] | activity at 300 g/ha [14] [%] | activity at 300 g/ha [15] [%] | activity at 300 g/ha [16] [%] | activity at 300 g/ha [17] [%] | activity at 300 g/ha [18] [%] | activity at 300 g/ha [19] [%] | activity at 300 g/ha [20] [%]
1 | Cn1c(C(F)(F)F)cc(=O)n(-c2cc(CC(Cl)C(C)(C)O)c(Cl)cc2F)c1=O (stereo not drawn) [Compound 1, 2-CHLORO-3-METHYL-1-[2-CHLORO-4-FLUORO-5-[1-METHYL-6-TRIFLUOROMETHYL-2,4(1H,3H)-PYRIMIDINDION-3-YL]PHENYL]BUTAN-3-OL] | 95 | 100 | 100 | 95 | 100 | 100 | 100 | 100 | 80 | 100 | 100 | 95 | 100 | 90 | 80 | 100 | 80 | 100 | 100 | 100
2 | Cn1nc(-c2cc(CC(Cl)C(C)(C)O)c(Cl)cc2F)c(Cl)c1OC(F)F (stereo not drawn) [Compound 3] | 75 | 100 | 70 | 40 | 100 | 100 | 100 | 100 | 30 | 100 | 95 | 100 | 100 | 40 |  | 100 |  | 60 | 60 | 100
3 | CC(=O)OC(C)(C)C(Cl)Cc1cc(-n2c(=O)cc(C(F)(F)F)n(C)c2=O)c(F)cc1Cl (stereo not drawn) [Compound 16, 2-CHLORO-3-METHYL-1-[2-CHLORO-4-FLUORO-5-[1-METHYL-6-TRIFLUOROMETHYL-2,4(1H,3H)-PYRIMIDINDION-3-YL]PHENYL]BUTAN-3-YL ACETATE] | 100 | 100 | 90 | 90 | 100 | 100 | 100 | 90 | 70 | 100 | 95 | 100 | 100 | 60 |  | 100 | 100 | 100 | 100 | 100
4 | CC(=O)OC(C)(C)C(Cl)Cc1cc(-n2nc(C)n(C(F)F)c2=O)c(F)cc1Cl (stereo not drawn) [Compound 17] | 100 | 80 | 90 | 85 | 100 | 100 | 60 | 100 | 50 | 100 | 80 | 80 | 95 | 50 |  | 100 | 80 | 70 | 100 | 100
5 | CC(=O)OC(C)(C)C(Cl)Cc1cc(-c2nn(C)c(OC(F)F)c2Cl)c(F)cc1Cl (stereo not drawn) [Compound 18] | 80 | 100 | 75 | 20 | 100 | 100 | 90 | 100 | 20 | 100 | 80 | 60 | 100 | 40 |  | 100 | 80 | 70 | 80 | 100
6 | Cc1nn(-c2cc(CC(Cl)CO)c(Cl)cc2F)c(=O)n1C(F)F (stereo not drawn) [Compound 24] | 65 | 100 | 80 | 70 | 80 | 100 | 100 | 100 | 50 | 10 | 80 | 95 |  | 30 | 10 | 100 | 30 | 30 | 80 | 100
